Measured values as given in ChEMBL document CHEMBL1201862, “PubChem BioAssay data set” (2004).
Active and inactive are the calls of the source.

Experiments:
[1] = cells; format: functional
[2] = target: T1, Histone-lysine N-methyltransferase NSD2 (Homo sapiens, UniProt O96028); format: biochemical
T1 sequence (O96028 whole entry): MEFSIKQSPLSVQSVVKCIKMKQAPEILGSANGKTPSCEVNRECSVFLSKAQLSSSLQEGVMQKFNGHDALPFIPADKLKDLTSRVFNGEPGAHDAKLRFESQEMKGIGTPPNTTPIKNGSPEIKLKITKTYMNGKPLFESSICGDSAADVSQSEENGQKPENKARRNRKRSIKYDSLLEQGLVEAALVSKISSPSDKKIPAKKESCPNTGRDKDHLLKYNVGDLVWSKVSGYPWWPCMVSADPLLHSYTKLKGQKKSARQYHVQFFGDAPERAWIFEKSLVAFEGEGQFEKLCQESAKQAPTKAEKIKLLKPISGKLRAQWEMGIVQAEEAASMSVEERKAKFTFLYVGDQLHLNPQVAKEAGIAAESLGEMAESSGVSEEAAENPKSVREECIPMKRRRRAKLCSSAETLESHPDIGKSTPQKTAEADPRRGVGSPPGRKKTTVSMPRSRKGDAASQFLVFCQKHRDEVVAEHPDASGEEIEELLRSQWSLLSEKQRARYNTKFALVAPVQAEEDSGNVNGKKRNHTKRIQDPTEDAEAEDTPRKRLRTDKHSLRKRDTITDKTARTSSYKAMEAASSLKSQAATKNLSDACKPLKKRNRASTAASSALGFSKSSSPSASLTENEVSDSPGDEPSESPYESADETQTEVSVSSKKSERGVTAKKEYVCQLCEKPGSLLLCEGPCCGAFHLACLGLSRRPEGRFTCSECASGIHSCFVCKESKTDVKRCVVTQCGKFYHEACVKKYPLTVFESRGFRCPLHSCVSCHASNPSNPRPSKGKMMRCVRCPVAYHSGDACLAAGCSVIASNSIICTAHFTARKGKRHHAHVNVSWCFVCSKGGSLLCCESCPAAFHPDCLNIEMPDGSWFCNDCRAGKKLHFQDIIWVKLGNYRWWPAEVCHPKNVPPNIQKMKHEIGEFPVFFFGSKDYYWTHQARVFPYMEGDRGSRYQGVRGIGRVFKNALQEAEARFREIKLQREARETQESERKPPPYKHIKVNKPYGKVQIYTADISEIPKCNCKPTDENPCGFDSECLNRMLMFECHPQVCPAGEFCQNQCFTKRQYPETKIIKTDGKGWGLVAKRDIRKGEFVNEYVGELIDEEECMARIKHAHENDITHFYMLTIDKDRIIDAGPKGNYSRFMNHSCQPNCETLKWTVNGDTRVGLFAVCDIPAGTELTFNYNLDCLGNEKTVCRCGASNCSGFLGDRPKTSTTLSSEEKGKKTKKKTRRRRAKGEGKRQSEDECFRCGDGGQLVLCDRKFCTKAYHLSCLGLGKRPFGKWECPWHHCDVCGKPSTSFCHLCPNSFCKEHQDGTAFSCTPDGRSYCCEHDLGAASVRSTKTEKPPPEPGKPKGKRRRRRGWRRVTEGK

[3] = target: Melanocortin receptor 4 (Homo sapiens, UniProt P32245); test: MC4R antagonist potency on cAMP, dose response, cell-based, TR-FRET, biased antagonists (AID 602298); format: functional;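 also: antagonist potency against agonist-stimulated cAMP production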
Chain of Melanocortin receptor 4 (P32245 whole entry): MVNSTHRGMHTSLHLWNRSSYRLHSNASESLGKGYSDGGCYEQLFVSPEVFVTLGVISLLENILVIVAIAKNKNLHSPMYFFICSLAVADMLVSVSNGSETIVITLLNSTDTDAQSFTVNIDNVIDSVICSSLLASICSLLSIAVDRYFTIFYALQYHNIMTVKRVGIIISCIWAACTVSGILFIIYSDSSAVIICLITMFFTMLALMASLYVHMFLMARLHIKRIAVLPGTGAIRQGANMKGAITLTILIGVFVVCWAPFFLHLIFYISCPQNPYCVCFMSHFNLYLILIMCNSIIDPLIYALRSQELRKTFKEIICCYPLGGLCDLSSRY

[4] = target: T2, Heat shock factor protein 1 (Mus musculus, UniProt P38532); test: HSF1 potentiators in luciferase reporter cells, confirmation, cell-based, NIH3T3, luminescence, dose retest (AID 435004); format: functional;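 also: stress induced by proteasome inhibitor MG132 added 30 min after compound; luciferase reporter driven by HSF1 response element in NIH3T3 cells; actives raise luminescence as potentiators of the MG132 stress response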
T2 sequence (P38532 whole entry): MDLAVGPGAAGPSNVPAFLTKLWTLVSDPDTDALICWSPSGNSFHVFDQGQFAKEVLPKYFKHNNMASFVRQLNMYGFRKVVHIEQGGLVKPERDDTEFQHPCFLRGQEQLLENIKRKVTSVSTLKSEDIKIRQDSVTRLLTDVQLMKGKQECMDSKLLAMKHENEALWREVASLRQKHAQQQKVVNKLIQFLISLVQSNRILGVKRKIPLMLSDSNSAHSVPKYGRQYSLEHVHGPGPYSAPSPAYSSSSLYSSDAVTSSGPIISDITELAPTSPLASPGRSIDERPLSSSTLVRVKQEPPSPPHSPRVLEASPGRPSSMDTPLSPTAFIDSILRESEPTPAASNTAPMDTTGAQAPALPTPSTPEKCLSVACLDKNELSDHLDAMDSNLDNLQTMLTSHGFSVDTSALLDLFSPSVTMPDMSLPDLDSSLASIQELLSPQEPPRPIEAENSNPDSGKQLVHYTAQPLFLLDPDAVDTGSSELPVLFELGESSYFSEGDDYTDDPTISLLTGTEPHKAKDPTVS

[5] = nonselective inhibitors of cellular cAMP signaling, dose response, counter-screen for MC4R biased antagonist project, cell-based, TR-FRET cAMP detection (AID 602305); format: functional;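 also: U2OS cells stimulated with forskolin near its EC80 as the cAMP inducer; potency is for inhibition of forskolin-stimulated cAMP signaling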
[6] = target: Mitogen-activated protein kinase 13 (Homo sapiens, UniProt O15264); format: functional
[7] = THP-1 cell cytotoxicity, dose response, cytotoxicity control, set 3 (AID 504852); format: functional; details: Mycobacterium tuberculosis
[8] = Vero cell cytotoxicity, dose response, cytotoxicity control for M. tuberculosis growth inhibitor project, Vero cells, purified and synthesized compounds, set 5 (AID 504909); format: functional; details: Mycobacterium tuberculosis
[9] = Vero cell cytotoxicity, dose response, cytotoxicity control for M. tuberculosis growth inhibitor project, Vero cells, purified and synthesized compounds, set 4 (AID 504854); format: functional; details: Mycobacterium tuberculosis
[10] = Vero cell cytotoxicity, cytotoxicity control for M. tuberculosis inhibitor project, purified and synthesized samples, set 3 (AID 504684); format: functional
[11] = THP-1 cell cytotoxicity, cytotoxicity control, set 4 (AID 504911); format: functional; details: Mycobacterium tuberculosis
[12] = target: Casein kinase I isoform alpha (Homo sapiens, UniProt P48729); format: functional
Chain of Casein kinase I isoform alpha (P48729 whole entry, canonical isoform): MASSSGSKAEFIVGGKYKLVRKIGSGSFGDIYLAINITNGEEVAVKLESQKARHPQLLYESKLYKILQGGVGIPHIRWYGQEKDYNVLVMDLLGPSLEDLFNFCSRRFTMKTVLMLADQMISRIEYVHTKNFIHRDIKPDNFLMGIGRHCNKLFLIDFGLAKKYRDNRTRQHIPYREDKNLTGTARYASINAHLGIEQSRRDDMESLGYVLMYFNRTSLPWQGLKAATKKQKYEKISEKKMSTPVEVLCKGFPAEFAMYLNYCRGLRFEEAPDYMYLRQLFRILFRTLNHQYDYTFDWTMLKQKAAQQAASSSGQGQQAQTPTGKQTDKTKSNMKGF

[13] = target: Dual specificity tyrosine-phosphorylation-regulated kinase 1B (Homo sapiens, UniProt Q9Y463); test: Navigating the Kinome. Panel member name: DYRK1B; format: functional
[14] = target: Mitogen-activated protein kinase 8 (Homo sapiens, UniProt P45983); format: functional;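 also: value comes from one member of a kinome-wide kinase profiling panel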
[15] = target: Leukocyte tyrosine kinase receptor (Homo sapiens, UniProt P29376); test: Navigating the Kinome. Panel member name: LTK; format: functional
Chain of Leukocyte tyrosine kinase receptor (P29376 whole entry): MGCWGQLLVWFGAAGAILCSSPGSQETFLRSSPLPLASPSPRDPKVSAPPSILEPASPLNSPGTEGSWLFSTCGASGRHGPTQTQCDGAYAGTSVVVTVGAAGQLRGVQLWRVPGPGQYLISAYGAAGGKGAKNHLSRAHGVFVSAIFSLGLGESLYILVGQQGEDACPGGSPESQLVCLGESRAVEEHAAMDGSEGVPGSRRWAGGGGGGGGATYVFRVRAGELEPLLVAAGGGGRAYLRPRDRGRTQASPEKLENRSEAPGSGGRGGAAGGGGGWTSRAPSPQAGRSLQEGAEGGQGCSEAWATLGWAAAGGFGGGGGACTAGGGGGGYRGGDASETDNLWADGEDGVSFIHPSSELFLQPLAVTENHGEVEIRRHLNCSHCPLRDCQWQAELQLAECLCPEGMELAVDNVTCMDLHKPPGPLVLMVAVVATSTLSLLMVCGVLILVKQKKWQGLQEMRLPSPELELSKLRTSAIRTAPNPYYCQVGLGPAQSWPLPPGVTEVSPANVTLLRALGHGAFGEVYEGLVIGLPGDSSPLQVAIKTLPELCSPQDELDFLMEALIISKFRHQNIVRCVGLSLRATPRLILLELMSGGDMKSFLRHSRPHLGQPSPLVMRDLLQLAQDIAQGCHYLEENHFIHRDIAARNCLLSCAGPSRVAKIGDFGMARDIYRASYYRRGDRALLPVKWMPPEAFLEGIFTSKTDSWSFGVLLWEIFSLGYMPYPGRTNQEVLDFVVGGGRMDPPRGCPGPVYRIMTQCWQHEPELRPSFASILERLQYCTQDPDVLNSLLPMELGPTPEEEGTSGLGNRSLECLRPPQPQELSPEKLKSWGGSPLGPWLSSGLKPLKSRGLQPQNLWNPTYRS

[16] = target: Cyclin-dependent kinase 5 (Homo sapiens, UniProt Q00535); format: functional;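 also: CDK5 measured as one member of a kinase profiling panel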
Chain of Cyclin-dependent kinase 5 (Q00535 whole entry): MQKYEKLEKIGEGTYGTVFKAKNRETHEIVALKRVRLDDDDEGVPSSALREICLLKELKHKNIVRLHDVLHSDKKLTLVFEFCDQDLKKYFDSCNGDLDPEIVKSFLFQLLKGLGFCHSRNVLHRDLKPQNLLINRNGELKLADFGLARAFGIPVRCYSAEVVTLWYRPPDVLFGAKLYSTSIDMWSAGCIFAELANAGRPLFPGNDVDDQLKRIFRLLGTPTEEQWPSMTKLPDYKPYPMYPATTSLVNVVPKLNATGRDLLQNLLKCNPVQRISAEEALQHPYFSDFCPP

[17] = target: Aurora kinase B (Homo sapiens, UniProt Q96GD4); format: functional
Chain of Aurora kinase B (Q96GD4 whole entry): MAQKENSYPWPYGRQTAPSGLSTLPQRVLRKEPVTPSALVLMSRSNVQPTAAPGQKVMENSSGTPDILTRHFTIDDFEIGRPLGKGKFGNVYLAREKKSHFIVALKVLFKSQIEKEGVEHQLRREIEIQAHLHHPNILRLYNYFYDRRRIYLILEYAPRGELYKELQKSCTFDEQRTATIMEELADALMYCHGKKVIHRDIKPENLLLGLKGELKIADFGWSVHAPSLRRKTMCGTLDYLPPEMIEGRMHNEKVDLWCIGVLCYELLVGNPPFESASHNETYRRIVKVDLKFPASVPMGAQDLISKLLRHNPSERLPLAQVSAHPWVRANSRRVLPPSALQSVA

[18] = target: Macrophage colony-stimulating factor 1 receptor (Homo sapiens, UniProt P07333); format: functional;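 also: value comes from the Navigating the Kinome screening panel, CSF1R member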
Chain of Macrophage colony-stimulating factor 1 receptor (P07333 whole entry): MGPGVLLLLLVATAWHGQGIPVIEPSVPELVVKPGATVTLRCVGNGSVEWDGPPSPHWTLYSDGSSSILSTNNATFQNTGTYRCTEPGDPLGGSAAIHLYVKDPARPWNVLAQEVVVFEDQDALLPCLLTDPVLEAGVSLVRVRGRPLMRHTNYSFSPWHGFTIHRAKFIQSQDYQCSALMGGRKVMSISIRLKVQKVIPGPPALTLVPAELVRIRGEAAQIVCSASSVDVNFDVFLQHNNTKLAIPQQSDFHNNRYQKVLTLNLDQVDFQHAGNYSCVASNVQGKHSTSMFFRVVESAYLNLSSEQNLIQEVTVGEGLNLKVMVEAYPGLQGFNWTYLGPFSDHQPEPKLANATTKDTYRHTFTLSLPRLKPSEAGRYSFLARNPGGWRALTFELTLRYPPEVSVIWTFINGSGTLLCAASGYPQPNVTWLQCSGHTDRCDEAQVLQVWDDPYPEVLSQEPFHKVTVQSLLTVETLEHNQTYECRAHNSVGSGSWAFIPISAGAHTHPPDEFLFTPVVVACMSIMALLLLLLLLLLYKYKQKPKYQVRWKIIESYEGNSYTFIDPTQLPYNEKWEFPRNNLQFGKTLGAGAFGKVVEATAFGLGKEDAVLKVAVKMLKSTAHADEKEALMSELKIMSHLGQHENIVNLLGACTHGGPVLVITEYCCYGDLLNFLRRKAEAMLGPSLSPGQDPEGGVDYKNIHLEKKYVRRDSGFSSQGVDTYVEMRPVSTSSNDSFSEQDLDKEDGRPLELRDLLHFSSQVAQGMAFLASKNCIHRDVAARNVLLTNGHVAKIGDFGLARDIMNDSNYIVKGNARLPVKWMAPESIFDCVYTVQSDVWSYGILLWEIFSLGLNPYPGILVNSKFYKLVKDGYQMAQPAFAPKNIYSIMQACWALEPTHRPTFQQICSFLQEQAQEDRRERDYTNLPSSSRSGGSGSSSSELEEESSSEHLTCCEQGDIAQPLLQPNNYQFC

[19] = target: Fibroblast growth factor receptor 1 (Homo sapiens, UniProt P11362); format: functional
Chain of Fibroblast growth factor receptor 1 (P11362 whole entry, the tested form may be a part): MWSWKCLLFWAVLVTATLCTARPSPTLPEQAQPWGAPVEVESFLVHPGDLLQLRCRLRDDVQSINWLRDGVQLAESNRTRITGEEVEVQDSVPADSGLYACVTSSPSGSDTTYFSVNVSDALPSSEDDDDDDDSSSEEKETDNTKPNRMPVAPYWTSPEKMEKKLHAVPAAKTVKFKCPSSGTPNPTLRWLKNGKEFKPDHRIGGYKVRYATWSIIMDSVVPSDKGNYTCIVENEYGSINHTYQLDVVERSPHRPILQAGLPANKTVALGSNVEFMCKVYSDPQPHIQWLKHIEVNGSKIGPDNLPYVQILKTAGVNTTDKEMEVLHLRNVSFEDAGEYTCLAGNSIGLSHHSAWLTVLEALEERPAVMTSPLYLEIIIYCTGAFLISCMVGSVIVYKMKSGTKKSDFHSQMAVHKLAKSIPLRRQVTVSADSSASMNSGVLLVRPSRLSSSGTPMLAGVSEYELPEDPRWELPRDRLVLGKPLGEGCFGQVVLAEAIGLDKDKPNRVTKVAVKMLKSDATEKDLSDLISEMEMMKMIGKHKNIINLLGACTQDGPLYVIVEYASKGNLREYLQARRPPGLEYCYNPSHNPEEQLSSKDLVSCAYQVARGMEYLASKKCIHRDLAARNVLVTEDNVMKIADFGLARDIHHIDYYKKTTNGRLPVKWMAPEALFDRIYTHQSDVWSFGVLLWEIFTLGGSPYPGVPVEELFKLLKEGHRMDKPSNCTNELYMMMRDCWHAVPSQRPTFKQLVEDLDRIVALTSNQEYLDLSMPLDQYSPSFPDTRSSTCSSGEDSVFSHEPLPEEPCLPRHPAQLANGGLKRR

[20] = target: LIM domain kinase 1 (Homo sapiens, UniProt P53667); test: Navigating the Kinome. Panel member name: LIMK1; format: functional
[21] = target: T3, Activin receptor type-1 (Homo sapiens, UniProt Q04771); test: Navigating the Kinome. Panel member name: ACVR1; format: functional
T3 sequence (Q04771 whole entry): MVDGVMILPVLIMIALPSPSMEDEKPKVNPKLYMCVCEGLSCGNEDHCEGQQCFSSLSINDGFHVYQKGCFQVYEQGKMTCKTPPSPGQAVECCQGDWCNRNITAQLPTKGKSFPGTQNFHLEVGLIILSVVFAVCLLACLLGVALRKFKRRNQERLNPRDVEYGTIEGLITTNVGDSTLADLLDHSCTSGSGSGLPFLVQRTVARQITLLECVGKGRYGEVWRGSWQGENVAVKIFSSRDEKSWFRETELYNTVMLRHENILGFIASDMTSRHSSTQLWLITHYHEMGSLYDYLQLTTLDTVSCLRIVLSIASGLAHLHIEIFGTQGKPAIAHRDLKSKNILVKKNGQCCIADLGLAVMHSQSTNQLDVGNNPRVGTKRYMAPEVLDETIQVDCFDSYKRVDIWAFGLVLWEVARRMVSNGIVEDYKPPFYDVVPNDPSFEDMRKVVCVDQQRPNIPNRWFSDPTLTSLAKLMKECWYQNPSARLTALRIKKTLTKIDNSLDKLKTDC

[22] = target: Mitogen-activated protein kinase kinase kinase kinase 4 (Homo sapiens, UniProt O95819); format: functional
[23] = target: Platelet-derived growth factor receptor alpha (Homo sapiens, UniProt P16234); test: Navigating the Kinome. Panel member name: PDGFRA; format: functional
[24] = target: Dual specificity protein kinase CLK4 (Homo sapiens, UniProt Q9HAZ1); format: functional
[25] = target: Activated CDC42 kinase 1 (Homo sapiens, UniProt Q07912); test: Navigating the Kinome. Panel member name: ACK1; format: functional
Chain of Activated CDC42 kinase 1 (Q07912 whole entry): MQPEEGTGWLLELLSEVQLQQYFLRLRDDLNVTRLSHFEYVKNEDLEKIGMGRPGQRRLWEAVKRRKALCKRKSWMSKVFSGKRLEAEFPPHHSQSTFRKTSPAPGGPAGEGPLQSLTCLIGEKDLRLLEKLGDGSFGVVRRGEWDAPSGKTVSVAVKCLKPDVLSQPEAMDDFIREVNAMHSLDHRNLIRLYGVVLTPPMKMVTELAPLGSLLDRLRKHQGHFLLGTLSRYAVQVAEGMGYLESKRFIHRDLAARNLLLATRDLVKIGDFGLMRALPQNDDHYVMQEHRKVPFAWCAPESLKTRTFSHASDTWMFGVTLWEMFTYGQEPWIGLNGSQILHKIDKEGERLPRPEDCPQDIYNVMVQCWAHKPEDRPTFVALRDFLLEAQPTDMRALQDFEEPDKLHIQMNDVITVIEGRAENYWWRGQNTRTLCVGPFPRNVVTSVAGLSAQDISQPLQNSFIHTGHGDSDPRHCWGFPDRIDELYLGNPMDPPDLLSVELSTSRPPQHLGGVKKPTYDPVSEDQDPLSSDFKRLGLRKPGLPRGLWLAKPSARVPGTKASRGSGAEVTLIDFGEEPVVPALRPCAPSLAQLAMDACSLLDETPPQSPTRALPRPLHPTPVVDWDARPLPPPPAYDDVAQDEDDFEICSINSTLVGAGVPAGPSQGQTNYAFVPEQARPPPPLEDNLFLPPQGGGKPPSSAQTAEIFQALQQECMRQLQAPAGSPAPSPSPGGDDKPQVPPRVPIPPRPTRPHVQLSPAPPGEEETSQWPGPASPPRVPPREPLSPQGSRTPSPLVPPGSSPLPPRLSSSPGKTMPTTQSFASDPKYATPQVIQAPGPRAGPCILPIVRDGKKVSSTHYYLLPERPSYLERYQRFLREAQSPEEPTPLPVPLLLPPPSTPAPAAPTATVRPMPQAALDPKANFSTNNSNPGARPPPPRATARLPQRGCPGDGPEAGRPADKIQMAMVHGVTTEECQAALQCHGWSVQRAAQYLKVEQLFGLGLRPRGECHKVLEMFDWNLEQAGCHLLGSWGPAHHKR

[26] = target: Vascular endothelial growth factor receptor 2 (Homo sapiens, UniProt P35968); format: functional

CC(C)Cn1c(N)c(C(=O)COC(=O)c2ccc([N+](=O)[O-])o2)c(=O)n(C)c1=O
IC50 [1]: 1.57 µM (active) | AC50 [2]: > 20 µM (inactive) | IC50 [3]: > 64.6 µM (inactive) | EC50 [4]: 18.5 µM (active) | IC50 [5]: > 64.6 µM (inactive)

O=S(=O)(NCCNCC=Cc1ccc(Br)cc1)c1cccc2cnccc12
Ki [6]: > 7.94 µM (inactive)

CCSc1nc(=O)c2ccccc2[nH]1
CC50 [7]: > 100 µM (active) | CC50 [8]: > 100 µM (active) | CC50 [9]: > 100 µM (active) | CC50 [10]: > 100 µM (active) | CC50 [11]: > 100 µM (active)

Nc1n[nH]c2c(-c3ccccc3)cccc12
Ki [12]: 39.8 µM (active) | Ki [13]: 50.1 µM (active) | Ki [14]: 15.8 µM (active) | Ki [15]: 50.1 µM (active) | Ki [16]: 50.1 µM (active) | Ki [17]: 79.4 µM (active) | Ki [18]: 63.1 µM (active) | Ki [19]: 79.4 µM (active) | Ki [20]: 63.1 µM (active) | Ki [21]: 79.4 µM (active) | Ki [22]: 25.1 µM (active) | Ki [23]: 50.1 µM (active) | Ki [24]: 79.4 µM (active) | Ki [25]: 79.4 µM (active) | Ki [26]: 50.1 µM (active)
